Measured values as given in patent EP0730590B1, “ISOXAZOLINE AND ISOXAZOLE FIBRINOGEN RECEPTOR ANTAGONISTS” (Dupont Pharmaceuticals Company, priority 1993, dated 1995).

Target: agonist-induced platelet aggregation (Homo sapiens, UniProt P05106+P08514)
Test: Platelet Aggregation Assay in platelet-rich plasma (PRP)
Type: cell-based
Conditions: without esterase
Procedure: Platelet Aggregation Assay: Venous blood was obtained from the arm of a healthy human donor who was drug-free and aspirin-free for at least two weeks prior to blood collection. Blood was collected into 10 ml citrated Vacutainer tubes. The blood was centrifuged for 15 minutes at 150 x g at room temperature, and platelet-rich plasma (PRP) was removed. The remaining blood was centrifuged for 15 minutes at 1500 x g at room temperature, and platelet-poor plasma (PPP) was removed. Samples were assayed on a aggregometer (PAP-4 Platelet Aggregation Profiler), using PPP as the blank (100% transmittance). 200 µl of PRP was added to each micro test tube, and transmittance was set to 0%. 20 µ of various agonists (ADP, collagen, arachidonate, epinephrine, thrombin) were added to each tube, and the aggregation profiles were plotted (% transmittance versus time). The results are expressed as % inhibition of agonist-induced platelet aggregation. For the IC50 evaluation, the test compounds were added at various concentrations prior to the activation of the platelets.
Table A below sets forth the antiplatelet activity of representative compounds of the present invention. The indicated compounds were tested for their ability to inhibit platelet aggregation (using platelet rich plasma (PRP)). […]

agonist-induced platelet aggregation, sequence (P08514 with tags, fused parts or gaps): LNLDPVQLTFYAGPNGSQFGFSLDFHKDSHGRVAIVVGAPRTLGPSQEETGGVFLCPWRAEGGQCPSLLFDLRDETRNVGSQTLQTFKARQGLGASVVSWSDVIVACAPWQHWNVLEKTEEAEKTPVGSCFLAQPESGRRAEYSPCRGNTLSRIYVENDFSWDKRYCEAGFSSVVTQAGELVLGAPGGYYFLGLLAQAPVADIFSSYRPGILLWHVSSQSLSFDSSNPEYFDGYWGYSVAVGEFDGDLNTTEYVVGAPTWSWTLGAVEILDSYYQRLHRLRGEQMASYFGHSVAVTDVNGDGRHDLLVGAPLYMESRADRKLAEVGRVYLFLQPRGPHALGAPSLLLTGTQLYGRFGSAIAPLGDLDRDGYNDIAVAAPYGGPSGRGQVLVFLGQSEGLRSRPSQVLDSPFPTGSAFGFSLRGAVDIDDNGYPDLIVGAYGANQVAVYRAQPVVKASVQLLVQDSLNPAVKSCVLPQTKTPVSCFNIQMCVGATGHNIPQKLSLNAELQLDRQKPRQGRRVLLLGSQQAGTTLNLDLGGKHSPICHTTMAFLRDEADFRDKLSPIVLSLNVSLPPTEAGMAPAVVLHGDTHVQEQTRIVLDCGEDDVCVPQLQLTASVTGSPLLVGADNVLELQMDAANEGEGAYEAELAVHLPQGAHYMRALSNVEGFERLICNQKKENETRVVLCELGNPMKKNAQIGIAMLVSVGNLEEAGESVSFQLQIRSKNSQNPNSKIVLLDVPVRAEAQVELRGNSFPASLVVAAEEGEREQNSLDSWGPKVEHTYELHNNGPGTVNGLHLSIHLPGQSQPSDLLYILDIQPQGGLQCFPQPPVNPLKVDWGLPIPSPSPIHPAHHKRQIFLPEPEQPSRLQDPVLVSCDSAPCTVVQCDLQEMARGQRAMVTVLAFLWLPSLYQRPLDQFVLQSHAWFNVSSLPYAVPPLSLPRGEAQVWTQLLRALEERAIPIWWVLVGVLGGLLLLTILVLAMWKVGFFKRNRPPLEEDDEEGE
agonist-induced platelet aggregation, sequence (P05106 27-788): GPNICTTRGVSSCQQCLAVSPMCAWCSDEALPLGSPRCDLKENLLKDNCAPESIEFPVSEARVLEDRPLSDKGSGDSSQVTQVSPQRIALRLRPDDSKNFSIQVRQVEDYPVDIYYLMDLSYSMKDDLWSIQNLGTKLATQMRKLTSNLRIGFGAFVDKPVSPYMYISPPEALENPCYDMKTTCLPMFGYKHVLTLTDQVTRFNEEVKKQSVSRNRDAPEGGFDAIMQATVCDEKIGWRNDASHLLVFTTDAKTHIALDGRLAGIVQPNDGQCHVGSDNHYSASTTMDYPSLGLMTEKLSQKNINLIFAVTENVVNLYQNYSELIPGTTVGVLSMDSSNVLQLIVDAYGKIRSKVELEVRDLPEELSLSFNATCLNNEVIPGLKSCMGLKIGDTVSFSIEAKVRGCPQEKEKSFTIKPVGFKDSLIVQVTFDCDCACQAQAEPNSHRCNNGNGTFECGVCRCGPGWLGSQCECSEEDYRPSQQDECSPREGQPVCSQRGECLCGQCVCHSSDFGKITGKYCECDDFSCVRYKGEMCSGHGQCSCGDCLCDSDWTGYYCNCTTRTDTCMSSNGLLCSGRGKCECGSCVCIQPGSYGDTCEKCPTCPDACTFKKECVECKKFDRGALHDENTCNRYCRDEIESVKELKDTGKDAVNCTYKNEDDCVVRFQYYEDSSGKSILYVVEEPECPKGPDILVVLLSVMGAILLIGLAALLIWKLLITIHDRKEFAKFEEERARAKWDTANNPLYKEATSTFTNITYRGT

Row | Compound | IC50 [µM]
1 | O=C(O)CCCN1C(=O)CC2(CC(CCCC3CCNCC3)=NO2)C1=O (stereo not shown) [Example 373] | 10 to 50

Target: human platelet rich plasma (Homo sapiens, UniProt P05106+P08514)
Sequence (P08514 with tags, fused parts or gaps): as the sequence (P08514 with tags, fused parts or gaps) above
Sequence (P05106 27-788): as the sequence (P05106 27-788) above
Test: Platelet Aggregation Assay, ester prodrugs preincubated with porcine liver esterase
Type: cell-based
Conditions: platelet rich plasma (PRP)
Procedure: Aliquots are then diluted in 0.1 M Tris, pH 7.4, to the desired concentrations. Aliquots of 20 µl of the esterase pretreated prodrugs are added to 200 µl of human platelet rich plasma. […] Platelet aggregation was allowed to proceed for 5 minutes. Percent inhibition is calculated using percent aggregation in the presence of the test compound divided by percent aggregation of control, times 100. This value is subtracted from 100, yielding percent inhibition. Calculation of IC50 is performed on a Texas Instruments TI59 with an IC50 program.

Row | Compound | IC50 [µM]
2 | COC(=O)C(CNC(=O)CC1CC(c2ccc(C(=N)N)cc2)=NO1)NC(=O)c1ccc(-c2ccccc2)cc1 (stereo not shown) [Example 523] | < 10
3 | COC(=O)C(CNC(=O)CC1CC(c2ccc(C(=N)N)cc2)=NO1)NS(=O)(=O)c1ccc(-c2ccccc2)cc1 (stereo not shown) [Example 546] | < 10
4 | Methyl N^2-(m-toluenesulfonyl)-N^3-[3-(2-amidinopyrid-5-yl)isoxazolin-5-ylacetyl]-S-2,3-diaminopropionate bis hydrochloric acid salt [Example 516] | < 10
5 | Methyl N^2-(m-toluenesulfonyl)-N^3-[3-(3-amidinopyrid-6-yl)isoxazolin-5-ylacetyl]-S-2,3-diaminopropionate bis hydrochloric acid salt [Example 514] | < 10
6 | Methyl N^2-(n-butyloxycarbonyl)-N^3-[3-(2-amidinopyrid-5-yl) isoxazolin-5-ylacetyl]-S-2,3-diaminopropionate bis hydrochloric acid salt [Example 515] | < 10
7 | Methyl N^2-(n-butyloxycarbonyl)-N^3-[3-(3-amidinopyrid-6-yl) isoxazolin-5-ylacetyl]-S-2,3-diaminopropionate bis hydrochloric acid salt [Example 513] | < 10
